Calls of active or inactive are those of the source. The calls are words filed in the database; no cut-off is given here.
Tests used:
K562 [1] = assay: Antiproliferative activity against human K562 cells assessed as cell growth inhibition incubated for 72 hrs by MTT assay; assay type: functional
[2] = Antiproliferative activity against human L132 cells assessed as cell growth inhibition incubated for 72 hrs by MTT assay; assay type: cell-based
Bcr/Abl fusion protein [3] = target: Bcr/Abl fusion protein (Homo sapiens, UniProt P00519, T315I); assay: Inhibition of BCR-ABL T315I mutant (unknown origin) incubated for 40 mins in presence of [gamma33P]ATP by scintillation method; assay type: protein assay
Bcr/Abl fusion protein [4] = target: Bcr/Abl fusion protein (Homo sapiens, UniProt P00519); assay: Inhibition of wild type BCR-ABL (unknown origin) incubated for 40 mins in presence of [gamma33P]ATP by scintillation method; assay type: protein assay
K562 [5] = assay: Antiproliferative activity against human K562 cells assessed as cell growth inhibition measured after 48 hrs by SRB assay; assay type: functional
K562 [6] = assay: Antiproliferative activity against human K562 cells assessed as cell growth inhibition at 10 uM measured after 48 hrs by SRB assay relative to control; assay type: functional; details: read-out: GI
HL-60(TB) [7] = assay: Antiproliferative activity against human HL-60(TB) cells assessed as cell growth inhibition measured after 48 hrs by SRB assay; assay type: functional
RPMI-8226 [8] = assay: Antiproliferative activity against human RPMI-8226 cells assessed as cell growth inhibition measured after 48 hrs by SRB assay; assay type: functional
RPMI-8226 [9] = assay: Antiproliferative activity against human RPMI-8226 cells assessed as cell growth inhibition at 10 uM measured after 48 hrs by SRB assay relative to control; assay type: functional; details: read-out: GI
CCRF-CEM [10] = assay: Antiproliferative activity against human CCRF-CEM cells assessed as cell growth inhibition at 10 uM measured after 48 hrs by SRB assay relative to control; assay type: functional; details: read-out: GI
HL-60(TB) [11] = assay: Antiproliferative activity against human HL-60(TB) cells assessed as cell growth inhibition at 10 uM measured after 48 hrs by SRB assay relative to control; assay type: functional
SR [12] = assay: Antiproliferative activity against human SR cells assessed as cell growth inhibition measured after 48 hrs by SRB assay; assay type: functional
MOLT-4 [13] = assay: Antiproliferative activity against human MOLT-4 cells assessed as cell growth inhibition measured after 48 hrs by SRB assay; assay type: functional
[14] = Selectivity index, ratio of GI50 for human HL60(TB) cells to GI50 for human K562 cells; assay type: functional
SR [15] = assay: Antiproliferative activity against human SR cells assessed as cell growth inhibition at 10 uM measured after 48 hrs by SRB assay relative to control; assay type: functional; details: read-out: GI
CCRF-CEM [16] = assay: Antiproliferative activity against human CCRF-CEM cells assessed as cell growth inhibition measured after 48 hrs by SRB assay; assay type: functional
MOLT-4 [17] = assay: Antiproliferative activity against human MOLT-4 cells assessed as cell growth inhibition at 10 uM measured after 48 hrs by SRB assay relative to control; assay type: functional; details: read-out: GI

Structure (SMILES)	GI50 (K562 [1])	GI50 at 72 h [2]	IC50 (Bcr/Abl fusion protein [3])	IC50 (Bcr/Abl fusion protein [4])	also measured
Cc1ccc(C(=O)Nc2cccc(C#Cc3cccc4[nH]nc(N)c34)c2)cc1C(F)(F)F	2350 nM	> 100000 nM	–	–	–
Nc1n[nH]c2cccc(C#Cc3cccc(C(=O)Nc4ccc(CN5CCOCC5)c(C(F)(F)F)c4)c3)c12	570 nM	> 100000 nM	1610 nM	194 nM	–
Nc1n[nH]c2cccc(C#Cc3cccc(NC(=O)c4cccc(C(F)(F)F)c4)c3)c12	1540 nM	> 100000 nM	2550 nM	–	–
Cc1cn(-c2cc(NC(=O)c3cccc(C#Cc4cccc5[nH]nc(N)c45)c3)cc(C(F)(F)F)c2)cn1	150 nM	12900 nM	824 nM	25.8 nM	GI50 (K562 [5]): < 10 nM; inhibition of growth at 10 µM (K562 [6]): 96.8%; GI50 (HL-60(TB) [7]): 3220 nM; GI50 (RPMI-8226 [8]): 4540 nM; inhibition of growth at 10 µM (RPMI-8226 [9]): 86.2%; inhibition of growth at 10 µM (CCRF-CEM [10]): 85%; inhibition of growth at 10 µM (HL-60(TB) [11]; read-out: GI): 87.5%; GI50 (SR [12]): 5060 nM; GI50 (MOLT-4 [13]): 3840 nM; RatioGI50 [14]: 322; inhibition of growth at 10 µM (SR [15]): 71.7%; GI50 (CCRF-CEM [16]): 4880 nM; inhibition of growth at 10 µM (MOLT-4 [17]): 79.3%
Nc1n[nH]c2cccc(C#Cc3cccc(C(=O)Nc4cc(C(F)(F)F)cc(C(F)(F)F)c4)c3)c12	520 nM	> 100000 nM	1480 nM	–	–
Nc1n[nH]c2cccc(C#Cc3cccc(NC(=O)c4cc(N5CCOCC5)cc(C(F)(F)F)c4)c3)c12	2210 nM	> 100000 nM	4840 nM	–	–
Cc1cn(-c2cc(C(=O)Nc3cccc(C#Cc4cccc5[nH]nc(N)c45)c3)cc(C(F)(F)F)c2)cn1	70 nM	10900 nM	1440 nM	15.4 nM	–
Nc1n[nH]c2cccc(C#Cc3cccc(NC(=O)c4cc(F)cc(C(F)(F)F)c4)c3)c12	2140 nM	> 100000 nM	5280 nM	–	–
Nc1n[nH]c2cccc(C#Cc3cccc(NC(=O)c4cc(C(F)(F)F)cc(C(F)(F)F)c4)c3)c12	> 10000 nM	–	> 20000 nM	–	–
Cc1ccc(NC(=O)c2ccc(CN3CCN(C)CC3)cc2)cc1Nc1nccc(-c2cccnc2)n1 [IMATINIB]	800 nM	> 10000 nM	–	–	GI50 (K562 [5]): 20 nM; inhibition of growth at 10 µM (RPMI-8226 [9]): 12.6%; inhibition of growth at 10 µM (CCRF-CEM [10]): 6.6%; growth inhibition (GI) (HL-60(TB) [11]): inactive; inhibition of growth at 10 µM (SR [15]): 14.6%; inhibition of growth at 10 µM (MOLT-4 [17]): 18%
CN1CCN(Cc2cc(NC(=O)c3cccc(C#Cc4cccc5[nH]nc(N)c45)c3)cc(C(F)(F)F)c2)CC1	300 nM	> 100000 nM	1630 nM	56.7 nM	–
Nc1n[nH]c2cccc(C#Cc3cccc(C(=O)Nc4cc(CN5CCOCC5)cc(C(F)(F)F)c4)c3)c12	830 nM	16700 nM	2510 nM	571 nM	–
Nc1n[nH]c2cccc(C#Cc3cccc(C(=O)Nc4cccc(C(F)(F)F)c4)c3)c12	3470 nM	15300 nM	2260 nM	–	–
CN1CCN(c2ccc(C(=O)Nc3cccc(C#Cc4cccc5[nH]nc(N)c45)c3)cc2C(F)(F)F)CC1	1480 nM	> 10000 nM	–	–	–
Nc1n[nH]c2cccc(C#Cc3cccc(C(=O)Nc4ccc(Cl)c(C(F)(F)F)c4)c3)c12	3810 nM	> 100000 nM	1420 nM	–	–

Reference: ChEMBL document CHEMBL4765455, “Design, synthesis, and biological evaluations of novel 3-amino-4-ethynyl indazole derivatives as Bcr-Abl kinase inhibitors with potent cellular antileukemic activity” (Eur J Med Chem, 2020)
